Reference: PubChem BioAssay (NCI)
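Five compound concentrations were applied to cells in 96-well plates for 48 hours; endpoints were derived by simple linear interpolation of the resulting dose-response curve. The concentration for full growth arrest is given as TGI.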 Where a SMILES comes first, the peptide text is derived from it. Bridges are numbered along the chain shown (N, C = ends). The star is where a group is joined. Cbz = O=C(OCc1ccccc1)*

Key:
Experiment in all cases: DTP human tumour cell line panel, 48 h
BT-549 breast = test system: BT-549 breast
HOP-92 NSCLC = test system: HOP-92 NSCLC
MDA-MB-231 breast = test system: MDA-MB-231 breast
NCI/ADR-RES ovarian = test system: NCI/ADR-RES ovarian
OVCAR-3 ovarian = test system: OVCAR-3 ovarian
PC-3 prostate = test system: PC-3 prostate
SNB-19 CNS = test system: SNB-19 CNS
SR leukemia = test system: SR leukemia
SW-620 colon = test system: SW-620 colon
UO-31 renal = test system: UO-31 renal
HCC-2998 colon = test system: HCC-2998 colon
T-47D breast = test system: T-47D breast
OVCAR-4 ovarian = test system: OVCAR-4 ovarian

| Structure (SMILES) | TGI (BT-549 breast) [µM] | TGI (HOP-92 NSCLC) [µM] | TGI (MDA-MB-231 breast) [µM] | TGI (NCI/ADR-RES ovarian) [µM] | TGI (OVCAR-3 ovarian) [µM] | TGI (PC-3 prostate) [µM] | TGI (SNB-19 CNS) [µM] | TGI (SR leukemia) [µM] | TGI (SW-620 colon) [µM] | TGI (UO-31 renal) [µM] | TGI (HCC-2998 colon) [µM] | TGI (T-47D breast) [µM] | TGI (OVCAR-4 ovarian) [µM] |
| --- | --- | --- | --- | --- | --- | --- | --- | --- | --- | --- | --- | --- | --- |
| CC(=O)OCC1OC(n2c3c(c(-c4ccc(C)cc4)c(C#N)c2=S)C(=O)CC(C)(C)C3)C(OC(C)=O)C(OC(C)=O)C1OC(C)=O (configuration not stated) | 38.1 | > 100 | 62.1 | > 100 | > 100 | 60 | > 100 | > 100 | > 100 | > 100 |  |  |  |
| COC(=NC(C)C)NC(C)C |  | > 100 | > 100 | > 100 |  | > 100 | > 100 | > 100 | > 100 | > 100 | > 100 | > 100 |  |
| CC(C)(C)C(=O)/C=C(\OB(F)F)C(C)(C)C |  | > 100 | > 100 | > 100 | > 100 | > 100 | > 100 | > 100 | > 100 | > 100 | > 100 | > 100 | > 100 |
| CNC(=O)C1CCCCNC(=O)CCC(NC(=O)OCc2ccccc2)C(=O)N1 (stereo not drawn) (Cbz-Glu-Lys-NHMe; lactam 1-2; configuration not given here) |  | > 100 | > 100 | > 100 | > 100 | > 100 | > 100 |  | > 100 | > 100 |  | > 100 | > 100 |
| CCCCCCCCCCCCCCCCOCC(COP(=O)(O)OCC1OC(n2cc(CC)c(=O)[nH]c2=O)CC1O)OC(=O)CCCCCCCCCCCCCCC (configuration not stated) |  | > 100 | > 100 | > 100 | > 100 | > 100 | > 100 | > 100 | > 100 | > 100 | > 100 | > 100 | > 100 |
| Cc1nnc2n1N=C(c1cc(F)c(Cl)cc1Cl)/C(=C/c1ccc(-c3ccc([N+](=O)[O-])cc3)o1)S2 | > 100 | > 100 |  | > 100 | > 100 | > 100 | > 100 | > 100 | > 100 | > 100 | > 100 | > 100 | > 100 |
| O=C(O)c1cc(CCc2ccc(O)c(O)c2)ccc1O | > 100 |  |  | > 100 | > 100 | > 100 | > 100 | 61.7 | > 100 | > 100 | > 100 | > 100 |  |
| COc1ccc2c(-c3csc(-c4c[nH]c5ccc(Br)cc45)n3)c[nH]c2c1 | > 100 | > 100 | 83.1 | > 100 | > 100 | 79.3 | > 100 |  | > 100 | > 100 |  | > 100 | > 100 |
| CC(=O)OCC1OC(N2C(=O)[C@@H](Oc3ccccc3)[C@H]2/C=C/c2ccccc2)C(OC(C)=O)C(OC(C)=O)C1OC(C)=O (some centres not stated) |  | > 100 |  |  | > 100 |  | > 100 | > 100 | > 100 | > 100 | > 100 |  | > 100 |
| O=C(O)CN1CCSc2ccccc2CN(CC(=O)O)CCSc2ccccc2C1 |  | > 100 |  |  | > 100 |  | > 100 | 84.5 | > 100 | > 100 | > 100 |  |  |
